Peptide text beside a SMILES is read from it.
Target: T1, eIF2Bα (Homo sapiens, UniProt Q14232)
T1 construct: made in house; host or cells: E. coli BL21(DE3)
T1 sequence (Q14232 1-305): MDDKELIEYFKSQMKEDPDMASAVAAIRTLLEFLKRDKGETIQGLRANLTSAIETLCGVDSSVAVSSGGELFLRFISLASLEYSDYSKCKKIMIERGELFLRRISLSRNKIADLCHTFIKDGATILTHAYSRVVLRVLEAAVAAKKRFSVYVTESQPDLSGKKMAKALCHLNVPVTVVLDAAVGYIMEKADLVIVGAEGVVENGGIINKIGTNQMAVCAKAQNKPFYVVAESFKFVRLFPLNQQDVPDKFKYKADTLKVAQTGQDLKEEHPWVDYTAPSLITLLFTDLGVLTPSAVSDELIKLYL
Test: MIDAS (mass spectrometry integrated with equilibrium dialysis) metabolite binding screen
Method in brief: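 Hits called at Storey q < 0.1 on z-scores of PCA-corrected log2 fold change between protein and metabolite chambers, quantified by FIA-MS in triplicate.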

[1] = MIDAS screen, sheet eIF2Ba, metabolites screened in pools 1-4, p-value and q-value given
[2] = MIDAS metabolite binding screen with eIF2Bα, sheet "eIF2Ba"

Compound	log2(corrected fold change) [1]	log2(corrected fold change) [2]	other results
NC(=O)c1ccc[n+]([C@@H]2O[C@H](COP(=O)([O-])O)[C@@H](O)[C@H]2O)c1 [Nicotinamide ribotide]	1.511	–	–
CNCC(O)c1ccc(O)c(OC)c1 (stereo not drawn) [Metanephrine]	-0.1853	–	–
O=C(O)CNC(=O)Cc1ccccc1 [Phenylacetylglycine]	0.07604	–	–
O=C[C@H](O)CO [D-Glyceraldehyde]	–	-0.02892	–
NCCO [Ethanolamine]	–	0.0208	–
CC(=O)N[C@H]1[C@@H](OP(=O)(O)OP(=O)(O)OC[C@H]2O[C@@H](n3ccc(=O)[nH]c3=O)[C@H](O)[C@@H]2O)O[C@H](CO)[C@@H](O)[C@@H]1O [UDP-GlcNAc]	–	-0.0409	–
OC[C@@H](O)[C@@H](O)[C@H](O)[C@@H](O)CO [D-Sorbitol]	0.05676	–	–
Nc1nc2c(ncn2[C@@H]2O[C@H](COP(=O)(O)OP(=O)(O)O[C@H]3O[C@H](CO)[C@@H](O)[C@H](O)[C@@H]3O)[C@@H](O)[C@H]2O)c(=O)[nH]1 [Guanosine diphosphate mannose]	–	0.001828	–
Cn1cnc(CCN)c1 [1-Methylhistamine]	–	-0.03686	–
O=P(O)(O)OC[C@H]1O[C@H](OP(=O)(O)O)[C@H](O)[C@@H](O)[C@@H]1O [D-Glucose 1,6-bisphosphate]	-0.7792	–	–
Nc1ncnc2c1ncn2[C@@H]1O[C@H](COP(=O)(O)OP(=O)(O)NP(=O)(O)O)[C@@H](O)[C@H]1O [Adenyl imidodiphosphate]	–	-0.08962	–
O=P(O)(O)O[C@H]1O[C@H](CO)[C@@H](O)[C@H](O)[C@H]1O [D-Glucose 1-phosphate]	-0.1344	–	–
C[C@@H]1O[C@H](OP(=O)(O)O)[C@@H](O)[C@H](O)[C@@H]1O [L-Fucose 1-phosphate]	–	-0.0359	–
N[C@@H](CC(=O)O)C(=O)O [L-Aspartate]	0.03257	–	–
OC[C@H]1O[C@H](OC2[C@@H](O)[C@H](O)C(O)[C@H](O)[C@@H]2O)[C@H](O)[C@@H](O)[C@H]1O (stereo partly drawn) [Galactinol]	–	-0.02052	–
Phosphatidylethanolamine	0.09167	–	–
NC(=O)NCCCC[C@H](N)C(=O)O [Homocitrulline]	0.1565	–	–
O=C(O)[C@H]1C[C@@H](O)CN1 [Cis-4-Hydroxy-D-proline]	–	0.008003	–
O=C(O)CC(O)CC(=O)O [3-hydroxypentanedioic acid]	–	-0.0058	–
C[N+](C)(C)CCOP(=O)([O-])OC[C@H](O)CO [L-alpha-Glycerophosphorylcholine]	–	0.1951	–
CC1CNC(=O)NC1=O (stereo not drawn) [Dihydrothymine]	-0.08021	–	–
Phosphatidic Acid	0.1983	–	–

Compound	log2(corrected fold change) [1]	log2(corrected fold change) [2]	other results
OC[C@H]1O[C@H](OCC2O[C@@H](O)[C@H](O)[C@@H](O)[C@@H]2O)[C@H](O)[C@@H](O)[C@H]1O (stereo partly drawn) [Melibiose]	–	-0.003615	–
O=C(O)C(O)c1ccccc1 (racemic) [DL-Mandelic acid]	0.3212	–	–
CCC(C)C(=O)C(=O)O (stereo not drawn) [3-Methyl-2-oxovaleric acid]	-0.05419	–	–
O=C(CO)[C@@H](O)[C@@H](O)CO [L-Ribulose]	-0.1354	–	–
Nc1ncnc2c1ncn2[C@@H]1O[C@H](COP(=O)(O)OP(=O)(O)OP(=O)(O)O)[C@@H](O)[C@H]1O [Adenosine triphosphate]	–	0.05437	–
O=C[C@H](O)[C@H](O)[C@H](O)COP(=O)(O)O [D-Ribose 5-phosphate]	0.3189	–	–
N[C@H](CCC(=O)O)C(=O)O [D-Glutamic acid]	–	-0.01634	–
NCCOP(=O)(O)OP(=O)(O)OC[C@H]1O[C@@H](n2ccc(N)nc2=O)[C@H](O)[C@@H]1O [CDP-ethanolamine]	–	-0.00979	–
CC(C)=CC(=O)O [3,3-Dimethylacrylic acid]	–	0.01899	–
C[C@H](N)C(=O)O [L-Alanine]	–	0.0004222	–
O=C(O)Cc1ccc(O)cc1 [4-Hydroxyphenylacetic acid]	-0.07366	–	–
NC(=O)C[C@H](N)C(=O)O [L-Asparagine]	0.07649	–	–
O=c1ccn([C@H]2C[C@H](O)[C@@H](COP(=O)(O)OP(=O)(O)OP(=O)(O)O)O2)c(=O)[nH]1 [dUTP]	-0.4569	–	–
N=C(N)NCCCC(=O)O [4-Guanidinobutyric acid]	0.2552	–	–
N[C@@H](CC(=O)O)C(=O)N[C@@H](Cc1ccccc1)C(=O)O [L-a-Aspartyl-L-phenylalanine] (H-Asp-Phe-OH)	-0.1203	–	–
O=CC(=O)O [Glyoxylate]	–	-0.02095	–
NCCS [Cysteamine]	–	0.01963	–
Cc1cc2nc3c(=O)[nH]c(=O)nc-3n(C[C@H](O)[C@H](O)[C@H](O)COP(=O)(O)OP(=O)(O)OC[C@H]3O[C@@H](n4cnc5c(N)ncnc54)[C@H](O)[C@@H]3O)c2cc1C [Flavin adenine dinucleotide]	–	-0.0588	–
O=C(O)CNC(=O)c1ccccc1 [Hippuric acid]	–	0.07626	–
Cc1cn([C@H]2C[C@H](O)[C@@H](COP(=O)(O)O)O2)c(=O)[nH]c1=O [Thymidine monophosphate]	–	-0.007923	–
O=C1O[C@H]2[C@H](OC(O)[C@@H]2O)[C@@H]1O (stereo partly drawn) [D-Glucurono-6,3-lactone]	–	0.01187	–
Cc1cc2nc3c(=O)[nH]c(=O)nc-3n(C[C@H](O)[C@H](O)[C@H](O)CO)c2cc1C [Riboflavin]	0.3728	–	–

Compound	log2(corrected fold change) [1]	log2(corrected fold change) [2]	other results
O=C(CO)[C@@H](O)[C@H](O)CO [D-Xylulose]	–	-0.0769	–
Nc1nc2c(ncn2[C@H]2C[C@H](O)[C@@H](COP(=O)(O)OP(=O)(O)O)O2)c(=O)[nH]1 [2-Deoxyguanosine 5-diphosphate]	–	-0.09804	–
N[C@@H](Cc1ccc(O)c(I)c1)C(=O)O [iodotyrosine]	–	–	MIDAS result (enrichment in the protein chamber / hit status) (eIF2Bα2, 50 μM per metabolite pool, 40 h dialysis at 4 °C): significantly enriched
O=C(O)c1cc(=O)[nH]c(=O)[nH]1 [Orotic acid]	0.07847	–	–
O=c1[nH]cnc2c1ncn2[C@H]1C[C@H](O)[C@@H](CO)O1 [2-Deoxyinosine]	0.06917	–	–
N[C@@H](Cc1c[nH]c2ccccc12)C(=O)O [L-Tryptophan]	0.08785	–	–
O=C(O)Cc1ccc(O)c(O)c1 [3,4-Dihydroxyphenylacetic acid]	0.1411	–	–
O=C(O)CC(C(=O)O)C(O)C(=O)O (racemic) [DL-Isocitric acid]	–	-0.01609	–
Nc1ncnc2c1ncn2C1CC(O)C(CO)O1 (stereo not drawn) [2-Deoxyadenosine]	–	0.4061	–
Nc1ccn([C@H]2C[C@H](O)[C@@H](COP(=O)(O)OP(=O)(O)O)O2)c(=O)n1 [2-Deoxycytidine 5-diphosphate]	–	0.01712	–
CC(=O)N[C@H]1C(O)O[C@H](COP(=O)(O)O)[C@@H](O)[C@@H]1O (stereo partly drawn) [N-Acetyl-D-glucosamine 6-phosphate]	–	-0.009906	–
O=C(O)CCCCCCCCCCC(=O)O [Dodecanedioic acid]	–	0.00577	–
O=C(O)/C=C(/CC(=O)O)C(=O)O [cis-Aconitic acid]	–	0.003317	–
OC[C@H]1O[C@H](O[C@H]2O[C@H](CO)[C@@H](O)[C@H](O)[C@H]2O)[C@H](O)[C@@H](O)[C@@H]1O [D-Trehalose]	–	-0.02052	–
CN(C)CC(=O)O [N,N-Dimethylglycine]	–	0.0213	–
N[C@H](CO)C(=O)O [D-Serine]	–	-0.04824	–
Nc1ncnc2c1ncn2[C@H]1C[C@H](O)[C@@H](COP(=O)(O)OP(=O)(O)OP(=O)(O)O)O1 [2-Deoxyadenosine 5-triphosphate]	-0.07151	–	–
N[C@@H](Cc1c[nH]cn1)C(=O)O [L-Histidine]	0.05971	–	–
CC(C)(COP(=O)(O)OP(=O)(O)OC[C@H]1O[C@@H](n2cnc3c(N)ncnc32)[C@H](O)[C@@H]1O)[C@@H](O)C(=O)NCCC(=O)NCCS [Dephosphocoenzyme A]	-0.1841	–	–
OCC(O)COC1OC(CO)C(O)C(O)C1O (stereo not drawn) [2,3-Dihydroxypropyl hexopyranoside]	–	0.03531	–
CC(C)CC(=O)C(=O)O [4-Methyl-2-oxovaleric acid]	-0.05419	–	–
CC(CN)C(=O)O (stereo not drawn) [3-Aminoisobutyric acid]	-0.1018	–	–
